Reference: patent US20090123389A1, “Methods for modulating Th17 cell development in the treatment and prevention of cellulite” (priority 2007, published 2009)

What was measured:
[1] = system: CD4+ CD25− T cells; experiment: Th17 differentiation / IL-17 expression of activated CD4+ CD25− T cells (TGFβ plus IL-6); assay type: cell-based, mouse; conditions: for inhibition of IL-17 expression by HPLC-purified enantiomers: TGFβ plus IL-6, day 4, compared with racemic mix
Method: Low doses of halofuginone (HF) were tested to determine the ability of HF to enhance Treg differentiation, while suppressing Th17 differentiation. Naïve CD4+ T cells (CD4+ CD25−) were isolated from the spleen and peripheral lymph nodes of C57B/6 mice. T cells were then activated using anti-CD3 (0.3 μg/ml) and anti-CD28 (0.5 μg/ml) antibodies either in media alone (row 1, 4), TGFβ alone (3 ng/ml—row 2, 5) or TGFβ (3 ng/ml) plus IL-6 (30 ng/ml) (row 3, 6). […] T cells were cultured for 3 days and CD25 and Foxp3 expression (Treg marker genes) was determine by FACS staining and flow cytometric analyses. Simultaneously, T cells were harvested and re-stimulated for 4 hours using phorbol myristic acetate (PMA; 10 nM), Ionomycin (1 μM) and cytokine secretion was prevented using brefeldin A (20 μg/ml). Following stimulation, the production of IL-17 and IFNγ were determined by intracellular staining and analyzed via flow cytometry.
The dose-response of HF on CD4+ T cell proliferation, activation (i.e. CD25 upregulation) and differentiation to Th1, Th2 and Th17 lineages were evaluated. Purified murine naïve CD4+ CD25− T cells were activated using anti-CD3 (0.3 μg/ml) and anti-CD28 (0.5 μg/ml) antibodies and varying amounts of HF was added to each T cell culture condition (1.25 nM-40 nM). CD4+ T cell proliferation was monitored by CFSE dilution on day 3-post activation and CD25 expression was evaluated by FACS staining 2 days after activation. For T cell differentiation experiments, naïve T cells were activated as above in the presence of Th1 (IL-12 (20 ng/ml) plus anti-IL-4 (1.5 μg/ml)), Th2 (IL-4 (50 ng/ml) plus anti-IFNγ (0.5 mg/ml)) or Th17 (TGFβ (3 ng/ml) plus IL-6 (30 ng/ml)) polarizing conditions plus titrating amounts of HF (1.25 nM-40 nM) or MAZ1310 (40 nM). […] All cytokine expression was determined by intracellular staining following PMA+Ionomycin+Brefeldin A re-stimulation and all data was normalized to control (MAZ1310)-treated cells. […] Biol., vol. 80:1-8 (2006).
(§1) Cytokines, antibodies and T cell culture: Purified CD4^+ CD25^− T cells were activated in vitro as previously described (I. M. Djuretic et al., Nat Immunol 8, 145 (2007)) using 0.3 μg/ml hamster anti-mouse CD3 (clone 145-2C11) (ATCC—Manassas, Va.) and 0.5 μg/ml hamster anti-mouse CD28 (BD Pharmingen, San Jose, Calif.). Activated cell cultures were differentiated using the following combinations of cytokines and antibodies: iTreg=recombinant human TGFβ1 (3 ng/ml; R&D systems, Minneapolis, Minn.), Th17=TGFβ1 (3 ng/ml) plus recombinant mouse IL-6 (30 ng/ml, R&D systems). Th1 and Th2 differentiation was performed as previously described. (I. M. Djuretic et al., Nat Immunol 8, 145 (2007)). Human IL-2 supernatant (National Cancer Institute) was used in culture at 0.01 U/ml and was added at 48 hours-post activation when T cells were split into tissue culture wells lacking CD3 and CD28 antibodies, with the exception of Th17 cultures that were maintained in the absence of IL-2. All reagents were added at the time of T cell activation and again at 48-hours post activation unless indicated otherwise. For some experiments, purified CD4^+ CD25^− T cells, CD8^+ T cells or B cells were labeled with 1 μM CFSE (Invitrogen) prior to activation in accordance with manufacturers instructions.
MAZ1310 was generated by chemical derivatization of halofuginone and was used at equal concentrations as a negative control.

[2] = system: TGFβ signaling; experiment: TGFβ signaling in T and B cells (Smad phosphorylation, lymphocyte responses to TGFβ); assay type: cell-based, mouse; conditions: HF 10 nM (2.5-40 nM for Smad); SB-431542 10 μM
Method: DMSO, 10 nM HF, 10 nM MAZ1310 or 10 μM SB-431542 was added as indicated at the time of activation and intracellular cytokine staining was performed on expanded T cells on day 5 as in FIG. 14B
FIG. 15B is an illustration depicting the analysis of CD8^+ T cells that were activated in the presence or absence of TGFβ and cultured with DMSO, 10 nM HF, 10 nM MAZ1310 or 10 μM SB-431542. Expanded cells were restimulated on day 5 and intracellular staining was performed as above.
FIG. 15C is an illustration depicting the analysis of CFSE-labeled B cells that were activated by LPS stimulation in the presence or absence of TGFβ plus DMSO, 10 nM HF, 10 nM MAZ1310 or 10 μM SB-431542. Intracellular IL-6 production in B cells re-stimulated with PMA plus ionomycin, or cell-surface IgA expression was determined 4 days after activation by FACS analyses.
T cells were then activated in the presence or absence of 3 ng/ml TGFβ. Whole cell extracts were prepared after 1 hour of stimulation and western blot analyses were performed using the indicated antibodies.
Western blotting: Whole cell lysates were generated from T cells activated for the indicated times. For STAT3 and Smad2/3 western blots cells were harvested, washed in PBS and lysed in 50 mM Tris, pH 7.4, 0.1% SDS, 1% Triton-×100, 140 mM NaCl, 1 mM EDTA, 1 mM EGTA supplemented with protease inhibitors tablets (Roche—Germany), 1 mM NaF and 1 mM Na3VO4. […]

[3] = system: unfolded protein response (Xbp-1 splicing); experiment: Xbp-1 splicing / ER stress response in activated T cells; conditions: tunicamycin 1 μg/ml or 10 nM HF, 4 hours
[4] = system: CD4+ CD25− T cells; experiment: CD4+ T cell proliferation, CD25 upregulation, cytokine production, Th1/Th2/iTreg differentiation; assay type: cell-based, mouse; conditions: titrating concentrations of tunicamycin
Method: The dose-response of HF on CD4+ T cell proliferation, activation (i.e. CD25 upregulation) and differentiation to Th1, Th2 and Th17 lineages were evaluated. Purified murine naïve CD4+ CD25− T cells were activated using anti-CD3 (0.3 μg/ml) and anti-CD28 (0.5 μg/ml) antibodies and varying amounts of HF was added to each T cell culture condition (1.25 nM-40 nM). CD4+ T cell proliferation was monitored by CFSE dilution on day 3-post activation and CD25 expression was evaluated by FACS staining 2 days after activation. For T cell differentiation experiments, naïve T cells were activated as above in the presence of Th1 (IL-12 (20 ng/ml) plus anti-IL-4 (1.5 μg/ml)), Th2 (IL-4 (50 ng/ml) plus anti-IFNγ (0.5 mg/ml)) or Th17 (TGFβ (3 ng/ml) plus IL-6 (30 ng/ml)) polarizing conditions plus titrating amounts of HF (1.25 nM-40 nM) or MAZ1310 (40 nM). The percentage of Th17 cells, (IL-17^+ IFNγ^−) was evaluated on day 3 following activation, whereas the abundance of Th1 cells (IFNγ^+ IL-4) and Th2 cells (IL-4^+ IFNγ^−) was determined 5 days following activation. All cytokine expression was determined by intracellular staining following PMA+Ionomycin+Brefeldin A re-stimulation and all data was normalized to control (MAZ1310)-treated cells. […] Biol., vol. 80:1-8 (2006).
as §1
Detection of cytokine production: Cytokines secreted into media supernatant were measured using the mouse Th1/Th2 cytometric bead array (CBA, BD Pharmingen) in accordance with manufacturers instructions. Briefly, CD4^+ CD25^− T cells were activated in anti-CD3/anti-CD28-coated tissue culture wells and supernatants were collected at the indicated times. For detection of intracellular cytokines in murine cells, cultured T or B cells were stimulated with 10 nM PMA (Sigma) and […] (Sigma) for 4-5 hours in the presence of […] (Sigma). Stimulated cells were harvested, washed with PBS and fixed with PBS plus 4% paraformaldehyde at room temperature for 20 minutes. […]

O=C(CC1NCCCC1O)Cn1cnc2cc(Br)c(Cl)cc2c1=O (single isomer, unassigned) [D-enantiomer of HF]
inhibition of IL-17 expression by HPLC-purified enantiomers [1]: more potently than a racemic mix

O=C(CC1NCCCC1O)Cn1cnc2cc(Br)c(Cl)cc2c1=O (single isomer, unassigned) [L-enantiomer]
inhibition of IL-17 expression by HPLC-purified enantiomers [1]: completely inactive

N[C@H](CO)Cc1c[nH]c2ccccc12 [L-tryptophanol]
IL-17 production ([1]; 0.2 mM L-tryptophanol, TGFβ plus IL-6): impaired IL-17 production

CC(C)(C)OC(=O)N1CCC[C@H](O)[C@H]1CC(=O)Cn1cnc2cc(Br)c(Cl)cc2c1=O [MAZ1310]
activity of HF derivative used as negative control ([1]; used at equal concentrations as HF): inactive

NC(=O)c1ccc(-c2nc(-c3ccc4c(c3)OCO4)c(-c3ccccn3)[nH]2)cc1 [SB-431542]
TGFβ-induced Smad phosphorylation and other lymphocyte responses to TGFβ [2]: abrogated all responses to TGFβ

tunicamycin
Xbp-1 splicing [3]: together with Xbp-1 splicing | IL-17 expression in T cells ([1]; titrating concentrations of tunicamycin): little influence | Th1 and Th2 differentiation [4]: preferentially impaired
